According to article PMC4350332 (Oncotarget, 2014):

Key:
[1] = test system: PC-3, SW-1088, UM-22B and MEF cell lines; assay: Sulforhodamine B cytotoxicity, cell line set; format: cell-based
Experimental: (§1) Compound cytotoxicity was determined using the Sulforhodamine B assay for cells cultured as a monolayer as described previously (45). For spheroid growth experiments, PC-3 cells were seeded (500 cells/well) into 96 well round bottom plates (Corning Costar 7007) in RPMI-1640 media containing 2.5% (w/v) Matrigel (BD Biosciences). […] Spheroid volumes were determined by obtaining diameter measurements from images taken on a Zeiss Axiovert 200M inverted microscope using the axiovision software.

[2] = test system: PC-3, K562, Jurkat and MDA-MD-453 cell lines; assay: Growth in D-glucose or D-galactose media (Sulforhodamine B); format: cell-based; settings: 20 μM, 96 h
Experimental: transformed and additional cancer cell lines. A, The indicated cell lines were seeded into
relevant media containing either 2 g/L D-glucose or D-galactose for 96 h. Cell mass was determined using the sulforhodamine B assay. Results are expressed as the percentage change vs DMSO control values for cells incubated in D-glucose containing media.
Experiments were performed in triplicate (A & C) or quadruplicate (B). Error bars represent standard deviation of the mean (*, P < 0.01).

PC-3 cells [3] = assay: Combination index analysis and potentiation with β-Chloro-alanine; format: cell-based; settings: 20 μM VER-246608
Experimental: (§2) The cells were then incubated for 120 h followed by cell mass determination using the Sulforhodamine B assay. […] Drug interactions were analyzed by the combination index (CI) method based on the method described by Chou. CI values <0.9 indicates synergism, 0.9 to 1.1 additivity, and >1.1 antagonism. The data was expressed in the form of Fa-CI simulation plot generated using calcusyn software (Biosoft). Potentiation assays were carried out as described previously.

PC-3 cells [4] = assay: Potentiation assay with cancer therapeutic agents, PC-3; format: cell-based
Experimental: as §2

HFF cells = assay: Sulforhodamine B cytotoxicity, HFF cells; format: cell-based, human; settings: all of the conditions tested, 120 h
Experimental: as §1, with “software. […]” for “software.”
oncogenic KRAS(G13D) and BRAF(V600E) mutations. A and B, Cell lines harboring a KRAS(G13D) mutation (HCT-116, DLD-1 and MDA-MB-231), wild-type KRAS (MDA-MB-453) or a BRAF(V600E) mutation (A2058 and A375) were seeded into 96 well plates. The […]
DMSO in different culture conditions for 120 h. Cell mass was determined using the suforhodamine B assay. Norm = glucose-free media supplemented with 10% FCS and 2 g/L D-glucose; VLG (very low glucose) = 0.1 g/L D-glucose; LS (low serum) = 0.5% FCS.
Experiments were performed in triplicate. Error bars represent standard deviation of the […]
(1 picture or pasted object on this page, not shown here)

ES-2 cells = assay: Potentiation assay with doxorubicin, ES-2; format: cell-based
Experimental: as §2

PDK-1 [5] = molecular target: T1, PDK-1 (Homo sapiens, UniProt Q15118); assay: Isothermal calorimetry (ITC) binding affinity; design: PDK-1: residues 30-436; made in house; host or cells: E. coli BL21
T1 sequence (Q15118 30-436): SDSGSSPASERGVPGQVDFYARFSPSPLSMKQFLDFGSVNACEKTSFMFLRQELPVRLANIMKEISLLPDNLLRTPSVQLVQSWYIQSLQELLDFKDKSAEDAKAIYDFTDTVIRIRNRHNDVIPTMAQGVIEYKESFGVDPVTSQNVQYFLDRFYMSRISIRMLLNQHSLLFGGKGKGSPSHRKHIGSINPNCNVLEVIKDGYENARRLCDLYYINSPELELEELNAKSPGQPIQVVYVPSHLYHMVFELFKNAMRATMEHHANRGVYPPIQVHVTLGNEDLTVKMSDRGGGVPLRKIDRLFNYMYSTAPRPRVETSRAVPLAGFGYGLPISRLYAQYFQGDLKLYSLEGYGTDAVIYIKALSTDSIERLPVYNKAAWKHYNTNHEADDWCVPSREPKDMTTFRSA

PDK-3 = molecular target: T2, PDK-3 (Homo sapiens, UniProt Q15120); assay: DELFIA-based enzyme functional assay (E1 substrate), PDK-3; format: biochemical; settings: data not shown
T2 construct: PDK-3: residues 9-406; made in house; host or cells: E. coli BL21
T2 sequence (Q15120 9-406): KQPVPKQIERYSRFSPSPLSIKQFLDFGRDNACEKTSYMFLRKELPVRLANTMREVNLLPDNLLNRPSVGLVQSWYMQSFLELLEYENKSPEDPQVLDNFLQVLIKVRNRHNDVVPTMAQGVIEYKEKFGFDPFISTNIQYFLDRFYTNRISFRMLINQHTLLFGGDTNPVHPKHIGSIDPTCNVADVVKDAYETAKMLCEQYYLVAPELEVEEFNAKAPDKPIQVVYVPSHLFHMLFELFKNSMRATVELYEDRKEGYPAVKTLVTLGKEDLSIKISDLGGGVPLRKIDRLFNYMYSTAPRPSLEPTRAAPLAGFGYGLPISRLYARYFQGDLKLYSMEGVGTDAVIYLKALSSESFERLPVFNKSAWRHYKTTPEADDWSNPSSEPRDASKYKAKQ

PDK-1 [6] = molecular target: T1, PDK-1; settings: read-out: In vitro functional (E1/E2), IC50, PDK-1; E1/E2 as the substrate
Experimental: DELFIA assay reagents (assay buffer, wash buffer, enhancement solution and anti-rabbit IgG-Eu-N1 secondary antibody) and plates were obtained from Perkin Elmer (MD, USA). Test compounds were subjected to a 10 point tripling dilution in DMSO, diluted in MOPS buffer (60mM MOPS pH7.2, 15 mM Magnesium acetate, 60 mM KCl) and added to the enzyme mix (10 nM PDK-1, 2 and 3 or 20 nM PDK-4, 300nM E1, 0.1 mg/mL BSA, 1 mM DTT) in 96-well V-bottom plates (Greiner). The reaction was initiated by the addition of ATP to a final concentration of 5 μM followed by a 1 h incubation at 30°C. The reaction was then stopped by the addition of STOP solution (50 mM Carbonate-Bicarbonate Buffer, pH 9.6), and then transferred to 96 well DEFLIA yellow plates. The plates were then sealed and incubated o/n at 4°C. Detection and quantification of p(Ser^293)E1α levels was then achieved through incubation with anti-p(Ser^293)E1α primary antibody (Genescript) followed by anti-rabbit secondary IgG-Eu-N1 antibody and addition of enhancement solution as per the manufacturer's instructions. The time-resolved fluorescent signal was then measured using a Victor2 plate reader (Perkin Elmer). The data was fitted by non-linear regression using XLFIT4 within a custom ABASE (IDBS) protocol in order to determine IC50 values.

PDK-4 = molecular target: T3, PDK-4 (Homo sapiens, UniProt Q16654); assay: DELFIA-based enzyme functional assay (E1 substrate), PDK-4; format: biochemical; settings: data not shown
T3 construct: PDK-4: residues 1-412; made in house; host or cells: E. coli BL21
T3 sequence (Q16654 whole entry, the tested form may be a part): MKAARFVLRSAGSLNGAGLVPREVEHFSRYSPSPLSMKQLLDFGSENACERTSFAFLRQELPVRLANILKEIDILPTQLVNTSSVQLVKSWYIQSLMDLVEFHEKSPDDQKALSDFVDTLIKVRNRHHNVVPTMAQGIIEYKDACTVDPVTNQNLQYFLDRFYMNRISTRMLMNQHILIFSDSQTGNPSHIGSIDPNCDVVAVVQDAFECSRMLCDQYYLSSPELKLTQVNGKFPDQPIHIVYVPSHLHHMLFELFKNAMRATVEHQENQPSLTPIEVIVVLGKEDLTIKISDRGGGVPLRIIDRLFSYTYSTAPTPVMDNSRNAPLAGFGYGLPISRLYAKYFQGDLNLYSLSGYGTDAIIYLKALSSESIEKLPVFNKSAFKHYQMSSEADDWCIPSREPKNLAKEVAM

Row | Kd (PDK-1 [5]) | Stimulation of PDK-3 activity (PDK-3) | IC50 (PDK-1 [6]) | Stimulation of PDK-4 activity (PDK-4) | SMILES | Compound potency under hypoxic conditions ([1]; 0.1% O2) | Cytotoxicity (reduced cell mass) in standard culture ([1]; Sulforhodamine B assay, standard media) | Effect on growth in D-glucose or D-galactose containing media [2] | Potentiation factor for β-Chloro-alanine (PC-3 cells [3]) | Potentiation of the remaining three agents (BEZ235, Cisplatin and 3-Bromopyruvate) (PC-3 cells [4]) | Potentiation of doxorubicin (PC-3 cells [4]; PC-3 cells) | Activity against HFF cells (HFF cells) | Potentiation of doxorubicin (ES-2 cells)
1 | – | – | – | – | Cc1cnc(Cl)nc1-c1ccc(N(Cc2ccc(CNC(=O)C(F)F)cc2)C(=O)c2ccc(O)cc2O)cc1 [VER-246608] | no evidence of augmented compound potency | weakly cytotoxic | little to no effect | 1.8 ± 0.06 | No evidence of potentiation | 2 fold | largely inactive | 3 fold
2 | 8 nM | approximately 2 fold | 3 nM | approximately 2 fold | C[C@@H]1CN(C(=O)[C@](C)(O)C(F)(F)F)[C@@H](C)CN1C(=O)c1ccc(C#N)cc1 [Nov3r, reference compound] | – | – | – | – | – | – | – | –
